In US20180000085A1, “USE OF PICOLINAMIDE COMPOUNDS WITH FUNGICIDAL ACTIVITY” (DOW AGROSCIENCES LLC, priority 2014, published 2018):

Key:
Zymoseptoria tritici = assay: Leaf blotch of wheat (SEPTTR) disease control on wheat seedlings; format: in vivo; set-up: key to SEPTTR 1DP, HV activity at 100 ppm (% control rating) / SEPTTR 3DC, HV activity at 100 ppm (% control rating) / SEPTTR disease control, 1DP / SEPTTR disease control, 3DC / SEPTTR 1DP disease control rating, HV activity / SEPTTR 3DC disease control rating, HV activity / SEPTTR 3DC, LV activity at 125.1 g/H (% Control rating) / SEPTTR 1DP, LV activity at 125.1 g/H (% Control rating) / SEPTTR 1DP disease control rating, LV activity at 125.1 g/H / SEPTTR 3DC disease control rating, LV activity at 125.1 g/H / SEPTTR 3DC disease control rating, HV activity at 100 ppm / SEPTTR 1DP disease control rating, HV activity at 100 ppm / HV activity at 100 ppm SEPTTR 3DC (disease control rating) / HV activity at 100 ppm SEPTTR 1DP (disease control rating) / LV activity at 125.1 g/H SEPTTR 1DP (disease control rating) / LV activity at 125.1 g/H SEPTTR 3DC (disease control rating): A: > 80; B: ≤ 80; C: Not Tested; D: No Activity Observed in the Reported Assay; details: for SEPTTR 1DP disease control rating, HV activity / SEPTTR 3DC disease control rating, HV activity: HV application at 100 ppm; for LV activity at 125.1 g/H SEPTTR 1DP (disease control rating) / LV activity at 125.1 g/H SEPTTR 3DC (disease control rating): low volume application
Puccinia triticina = assay: Wheat brown rust (PUCCRT) disease control on wheat seedlings; format: in vivo; set-up: key to PUCCRT 3DC, HV activity at 100 ppm (% control rating) / PUCCRT disease control, 3DC / PUCCRT 1DP disease control rating, HV activity / PUCCRT 3DC disease control rating, HV activity / PUCCRT 3DC, LV activity at 125.1 g/H (% Control rating) / PUCCRT 1DP, LV activity at 125.1 g/H (% Control rating) / PUCCRT 3DC disease control rating, LV activity at 125.1 g/H / PUCCRT 1DP disease control rating, LV activity at 125.1 g/H / PUCCRT 3DC disease control rating, HV activity at 100 ppm / PUCCRT 1DP disease control rating, HV activity at 100 ppm / HV activity at 100 ppm PUCCRT 3DC (disease control rating) / LV activity at 125.1 g/H PUCCRT 1DP (disease control rating) / LV activity at 125.1 g/H PUCCRT 3DC (disease control rating): A: > 80; B: ≤ 80; C: Not Tested; D: No Activity Observed in the Reported Assay; details: for PUCCRT 1DP disease control rating, HV activity / PUCCRT 3DC disease control rating, HV activity: HV application at 100 ppm; for LV activity at 125.1 g/H PUCCRT 1DP (disease control rating) / LV activity at 125.1 g/H PUCCRT 3DC (disease control rating): low volume application
[1] = 1 Day Protectant, wheat leaf blotch
[2] = 3 Day Curative, wheat leaf blotch
[3] = 1 Day Protectant, wheat brown rust
[4] = 3 Day Curative, wheat brown rust
[5] = high volume application, 100 ppm, 1 day protectant
[6] = high volume application, 100 ppm, 3 day curative

SMILES	SEPTTR 1DP disease control rating, HV activity (Zymoseptoria tritici; [1])	SEPTTR 3DC disease control rating, HV activity (Zymoseptoria tritici; [2])	PUCCRT 1DP disease control rating, HV activity (Puccinia triticina; [3])	PUCCRT 3DC disease control rating, HV activity (Puccinia triticina; [4])	LV activity at 125.1 g/H SEPTTR 1DP (disease control rating) (Zymoseptoria tritici; [1])	LV activity at 125.1 g/H SEPTTR 3DC (disease control rating) (Zymoseptoria tritici; [2])	LV activity at 125.1 g/H PUCCRT 1DP (disease control rating) (Puccinia triticina; [3])	LV activity at 125.1 g/H PUCCRT 3DC (disease control rating) (Puccinia triticina; [4])	other results
CCC(CCC(C)C)C(Oc1ccccc1)C(C)OC(=O)C(C)NC(=O)c1nccc(OC)c1O (stereo not shown) [Cmpd 317]	A (> 80)	B (≤ 80)	A (> 80)	B (≤ 80)	–	–	–	–	–
CCOc1ccnc(C(=O)N[C@@H](C)C(=O)O[C@@H](C)[C@H](Oc2ccccc2)C(C)C)c1O [Cmpd 418]	B (≤ 80)	D	B (≤ 80)	A (> 80)	–	–	–	–	–
C=CC[C@@H](OCC1CC1)[C@H](C)OC(=O)[C@H](C)NC(=O)c1nccc(OC)c1OCOC(C)=O [Cmpd 1076]	–	–	–	–	D	D	B (≤ 80)	B (≤ 80)	–
CCC(CC)C(Oc1cc(F)ccc1F)C(C)OC(=O)C(CC(C)C)NC(=O)c1nccc(OC)c1O (stereo not shown) [Cmpd 428]	D	D	B (≤ 80)	D	–	–	–	–	–
COc1ccnc(C(=O)N[C@@H](C)C(=O)O[C@@H](C)[C@@H](CC(C)C)OCC2CC2)c1OC(C)=O [Cmpd 1112]	–	–	–	–	D	D	B (≤ 80)	A (> 80)	–
COc1ccnc(C(=O)N[C@@H](C)C(=O)O[C@@H](C)[C@@H](CC(C)C)Oc2ccc(C)cc2Cl)c1OC(C)=O [Cmpd 1115]	–	–	–	–	B (≤ 80)	B (≤ 80)	A (> 80)	A (> 80)	–
CC(NC(=O)c1nccc(Cl)c1O)C(=O)OC(C)C(Oc1ccccc1)C(C)C (stereo not shown) [Cmpd 425]	D	D	B (≤ 80)	D	–	–	–	–	–
C=CC[C@@H](OCC(=C)C)[C@H](C)OC(=O)[C@H](C)NC(=O)c1nccc(OC)c1O [Cmpd 1019]	–	–	–	–	–	–	–	–	SEPTTR 1DP disease control rating, HV activity at 100 ppm (Zymoseptoria tritici; [5]): B (≤ 80); SEPTTR 3DC disease control rating, HV activity at 100 ppm (Zymoseptoria tritici; [6]): A (> 80); PUCCRT 1DP disease control rating, HV activity at 100 ppm (Puccinia triticina; [5]): A (> 80); PUCCRT 3DC disease control rating, HV activity at 100 ppm (Puccinia triticina; [6]): A (> 80)
COc1ccnc(C(=O)NC(C)C(=O)OC(C)C(Oc2cccc(-c3ccccc3)c2)C(C)C)c1O (stereo not shown) [Cmpd 389]	B (≤ 80)	B (≤ 80)	A (> 80)	D	–	–	–	–	–
COc1ccnc(C(=O)N[C@@H](C)C(=O)O[C@@H](C)[C@@H](CC(C)C)Oc2cc(F)ccc2F)c1O [Cmpd 1049]	–	–	–	–	–	–	–	–	HV activity at 100 ppm SEPTTR 1DP (disease control rating) (Zymoseptoria tritici; HV application, 100 ppm, 1 Day Protectant, wheat leaf blotch): A (> 80); HV activity at 100 ppm SEPTTR 3DC (disease control rating) (Zymoseptoria tritici; HV application, 100 ppm, 3 Day Curative, wheat leaf blotch): B (≤ 80); HV activity at 100 ppm PUCCRT 1DP (disease control rating) (Puccinia triticina; HV application, 100 ppm, 1 Day Protectant, wheat brown rust): A (> 80); HV activity at 100 ppm PUCCRT 3DC (disease control rating) (Puccinia triticina; HV application, 100 ppm, 3 Day Curative, wheat brown rust): A (> 80)
